Results on 7 compounds are retold here after US8673965B2, “Composition for the treatment of arthritis containing a dibenzo-p-dioxin derivative as the active ingredient” (Livechem, Inc., priority 2008, dated 2014).

The structures appear in SMILES notation.

One experiment deals with arthritis induced rabbit. The experiment can be described thus: External-use compositions in collagenase arthritis induced rabbit. The class given is in vivo. The settings on record: for Heating score / Limping score / Reddening score / Swelling score: score 0-3; for Max. Effect during Treatment: (total score 7th day − 14th day)/7th day; for Total Treatment Effect: (total score 7th day − 21st day)/7th day; for Healing Effect upon Discontinuation of Treatment: (total score 14th day − 21st day)/14th day. Here is the method:
The composition of a carrier used to absorb the active ingredient into the skin was made referring to Bookman et al (Can. Med. Assoc. J. 171(4) 333-338 (2004)).
In order to induce arthritis in the rabbit, six test groups were set up, and five rabbits were randomly assigned into each group. A collagenase solution (4 mg/mL, saline) was filtered with a 0.22 μm membrane. 2.5˜3.0 kg weighed rabbits assigned into six test groups were anesthetized with tiletamine-zolazepam (Zoletil 50, Virbac, France). The region around the right knee joint of each rabbit was shaved and disinfected, after which the articular cavity thereof was injected with 0.25 mL of saline in one test group and 0.25 mL of the collagenase solution in the other five test groups (Choi, et al. Osteoarthritis and Cartilage 10, 471-478 (2002)). […] This model has been adopted because it is similar to the degeneration of the cartilage tissue in the human degenerative arthritis.
From the 7th day, 0.3 mL of each of the external-use compositions of Table 3 was sufficiently applied two times per day for 7 days to the affected part of the five test groups treated with the collagenase solution, and no treatment was performed for the following 7 days in order to evaluate the fundamental healing effects. The swelling, reddening, heat and limping of the articular part were quantitatively evaluated on the day (0th day) immediately before collagenase treatment, the 7th day, the 14th day and the 21st day, using the evaluation criteria comprising 0 (normal), 1 (low), 2 (middle), 3 (high). In order to objectively evaluate the effects of respective treatment solutions, the total score at each evaluation was compared, and “maximum effect during treatment”, “total treatment effect”, “healing effect upon discontinuation of treatment” were calculated by the following equations.
(1) Maximum effect during treatment=(total score on 7th day−total score on 14th day)/total score on 7th day,
(2) Total treatment effect=(total score on 7th day−total score on 21st day)/total score on 7th day,
(3) Healing effect upon discontinuation of treatment=(total score on 14th day−total score on 21st day)/total score on 14th day.

For the next experiment, the system named is AP-1. The experiment in a line: AP-1-luciferase reporter in IL-1α-stimulated rabbit articular cartilage tissue. The class given is cell-based. The settings on record: 10 μg/mL, 5 ng/mL rhIL-1α; for inhibition at 10 µg/mL: Oryctolagus cuniculus, AP1, luciferase activity. Here is the method:
(§1) A five-week-old rabbit was killed, from the hock joint of which the articular cartilage was then taken. The articular surface (200˜220 mg/joint) was placed in a complete medium (DMEM, supplemented with heat inactivated 5% FBS; penicillin 100 U/mL; streptomycin 100 μg/mL) under sterile conditions. It was washed three or four times and then incubated at 37° C. for about 1˜2 days under sterile conditions and under 5% CO2/95% air conditions, after which AP-1-luciferase or NFkB-luciferase reporter plasmid DNA (each 0.5 μg: Stratagene) was transfected into the incubated tissue using a Lipofectamin transfection reagent (Invitrogen, Carlsbad, Calif., U.S.A.). After 24 hours, the complete medium was exchanged with a basic medium (DMEM, supplemented with heat inactivated 1% FBS, 10 mM HEPES, penicillin 100 U/mL, streptomycin 100 μg/mL). […] After 1 hour, the culture medium of each group was treated with 5 ng/mL rhIL-1α (R&D systems, Minneapolis, USA). Then, the culture medium was incubated at […] under 5% CO2/95% air conditions for 60 hours, and then treated with a lysis buffer (0.1M potassium phosphate buffer, pH 7.8/1% Triton X-100/1 mM DTT/2 mM EDTA), and the luciferase activity in the culture medium was measured using a luminometer (Monolight 2010).

A further experiment concerns NF-kB. The experiment can be described thus: NFkB-luciferase reporter in IL-1α-stimulated rabbit articular cartilage tissue. The settings on record: 10 μg/mL, 5 ng/mL rhIL-1α. The class given is cell-based. Here is the method:
as §1
For orientation: Reporter assays use an easily measured gene product as a stand-in for the process of interest.

[1] abbreviates: 7th Day (before treatment), 1.5% active, 0.3 mL twice daily topical.
Where [2] appears, read: 14th Day (end of 7-day treatment).
Where [3] appears, read: 21st Day (7 days after discontinuation).

The term inhibition denotes the share of the control response that was lost under treatment.

Turning to `O=C([O-])Cc1ccccc1Nc1c(Cl)cccc1Cl.[Na+]` [Dichlofenac Sodium], in the experiment with arthritis induced rabbit (7th Day (before treatment)), the “Total Score” value was 11.4 ± 1.34, the Heating score was determined as 2.8 ± 0.45, the Limping score is listed as 3.0 ± 0.00 and the Reddening score is 2.8 ± 0.45. This compound showed a Swelling score in the experiment with arthritis induced rabbit (setting [1]) of 2.8 ± 0.45. In the experiment with arthritis induced rabbit (14th Day), the “Total Score” value was 5.8 ± 1.3, the Heating score came to 1.4 ± 0.55, the Limping score stood at 1.6 ± 0.55 and the Reddening score was 1.4 ± 0.55. In the experiment on arthritis induced rabbit (setting [2]), this compound came in with a Swelling score of 1.4 ± 0.55. For the same compound, in the experiment on arthritis induced rabbit (21st Day), the “Total Score” value was 5.4 ± 0.55, the Heating score is 1.2 ± 0.45, the Limping score is on record as 1.4 ± 0.55 and the Reddening score is reported as 1.4 ± 0.55. Besides, the Swelling score in the experiment with arthritis induced rabbit (setting [3]) worked out at 1.4 ± 0.55. Further, in the experiment on arthritis induced rabbit, the “Max. Effect during Treatment” value came to 49.1%, the “Total Treatment Effect” value was 52.6% and the “Healing Effect upon Discontinuation of Treatment” value is recorded as 6.9%.

As for `O=C(O)Cc1ccccc1Nc1c(Cl)cccc1Cl` [Dichlofenac, dichlofenac], the “AP-1 Activity Inhibition (%)” value in the experiment with AP-1 worked out at 34%. For the same compound, the “NF-kB Activity Inhibition (%)” value with NF-kB was 32%.

In the experiment with AP-1, `CC(C)Cc1ccc(C(C)C(=O)O)cc1` (stereo not shown) [Ibuprofen, ibuprofen] gave an inhibition at 10 µg/mL of 27%. The “NF-kB Activity Inhibition (%)” value with NF-kB stood at 23%.

For the compound `CC(C(=O)O)c1cccc(C(=O)c2ccccc2)c1` (stereo not shown) [Ketoprofen, ketoprofen], in the experiment on AP-1, at 10 µg/mL the inhibition was 22%. The “NF-kB Activity Inhibition (%)” value with NF-kB is given as 12%.

In the experiment with AP-1, `COc1ccc2c(c1)c(CC(=O)O)c(C)n2C(=O)c1ccc(Cl)cc1` [Indomethacin, indomethacin] yielded an inhibition at 10 µg/mL of 34%.

In the experiment on AP-1, `CC(=O)Oc1ccccc1C(=O)O` [Aspirin, aspirin] had an inhibition at 10 µg/mL of 46%. In addition, in the experiment on arthritis induced rabbit (7th Day (before treatment)), the Heating score was found to be 3.0 ± 0.00, the Limping score is listed as 2.8 ± 0.45 and the Reddening score came out at 2.8 ± 0.45. This compound also registered a Swelling score in the experiment on arthritis induced rabbit (setting [1]) of 3.0 ± 0.00. In addition, in the experiment with arthritis induced rabbit (14th Day), the “Total Score” value came to 6.0 ± 0.71, the Heating score was 1.4 ± 0.55, the Limping score is reported as 1.4 ± 0.55 and the Reddening score stood at 1.6 ± 0.55. The compound also showed a Swelling score in the experiment with arthritis induced rabbit (setting [2]) of 1.6 ± 0.55. Moreover, in the experiment with arthritis induced rabbit (21st Day), the “Total Score” value was found to be 5.0 ± 1.0, the Heating score worked out at 1.2 ± 0.45, the Limping score is reported as 1.2 ± 0.45 and the Reddening score amounted to 1.4 ± 0.55. Further, the Swelling score in the experiment with arthritis induced rabbit (setting [3]) amounted to 1.2 ± 0.45. Besides, in the experiment on arthritis induced rabbit, the “Max. Effect during Treatment” value turned out to be 48.3%, the “Total Treatment Effect” value turned out to be 56.9% and the “Healing Effect upon Discontinuation of Treatment” value stood at 16.7%. For the same compound, the “NF-kB Activity Inhibition (%)” value with NF-kB is 48%.

Turning to `Cc1ccc(-c2cc(C(F)(F)F)nn2-c2ccc(S(N)(=O)=O)cc2)cc1` [Celecoxib, celecoxib], the inhibition at 10 µg/mL with AP-1 was found to be 23%. Besides, in the experiment with NF-kB, the “NF-kB Activity Inhibition (%)” value was found to be 10%.
